Results from US8772277B2, “Nitrogen-containing heterocyclic compound” (Takeda Pharmaceutical Company Limited, priority 2011, dated 2014).
Structures can show the parent of a compound that is named as a salt.

Assays:
MDA-MB-231-luc cells = assay: Antitumor test using MDA-MB-231-luc cells (subcutaneous transplant); type: in vivo, Balb/c nu/nu mice; conditions: change in tumor volume, vehicle group = 100%
Method: Experimental Example 3 Antitumor Test using MDA-MB-231-luc Cells
6-Week-old Balb/c nu/nu mice were transplanted subcutaneously with 5×10^6 cells/100 μL, and the mice were grouped according to the body weight and tumor volume after 1 to 2 weeks. Vehicle (0.5% MC) or a compound was administered orally to mice (6 mice per group). The administration was twice per day and performed continuously during the dosing period. Setting the change in tumor volume of the vehicle-treated group as 100%, the change rate in tumor volume of the compound-treated group (□/C %) was calculated.

[1] = target: T1, fusion protein containing GAL4-DNA-binding domain and ERR full-length (Homo sapiens, UniProt P11474); assay: Reporter assay system using 293T cells (GAL4-ERR luciferase, inverse agonist activity); type: cell-based; conditions: compound final concentration 3 μM, no compound = 0%, 10 μM XCT-790 = 100%; for inhibition at 3 µM: HEK-293T, read-out: inhibition rate (%) at 3 μM
T1 construct: expressed in transfected cells; host or cells: 293T cells
T1 sequence (P11474 1-423): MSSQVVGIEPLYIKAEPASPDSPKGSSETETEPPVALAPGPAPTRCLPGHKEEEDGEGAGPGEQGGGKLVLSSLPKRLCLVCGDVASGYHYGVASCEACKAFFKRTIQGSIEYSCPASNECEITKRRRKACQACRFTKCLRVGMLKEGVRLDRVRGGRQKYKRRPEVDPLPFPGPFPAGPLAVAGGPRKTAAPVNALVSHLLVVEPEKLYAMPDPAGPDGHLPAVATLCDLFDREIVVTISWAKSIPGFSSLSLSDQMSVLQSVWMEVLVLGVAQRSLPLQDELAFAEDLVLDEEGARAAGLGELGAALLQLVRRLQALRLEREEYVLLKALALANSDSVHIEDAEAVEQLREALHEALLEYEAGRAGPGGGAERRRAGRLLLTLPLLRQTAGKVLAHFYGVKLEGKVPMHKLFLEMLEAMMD
Method: Experimental Example 2 Compound Evaluation in Reporter Assay System Using 293T Cells
293T cells derived from human kidney were seeded in a 150 cm^2 flask by 6,000,000 cells, and cultured in a medium (DMEM medium containing 10% inactivated Fetal Bovine Serum sterile filtered (FBS), […] Gentamicin, 10 mM HEPES buffer (pH 7.4)) at 37° C. in the presence of 5% CO2 for 1 day.
Then, vector DNA having a gene encoding a fusion protein, containing GAL4-DNA-binding domain and ERR full-length and a vector DNA wherein luciferase gene is fused at the downstream of GAL4-binding-sequence were cotransfected by a lipofection method, and the cells were cultured at 37° C. in the presence of 5% CO2 for 1 day. The cells were recovered, sown in a 384 well plate by 15,000 cells, and cultured at 37° C. in the presence of 5% CO2 for 3 hrs. Furthermore, 50 μM N-[5-(trifluoromethyl)-1,3,4-thiadiazol-2-yl]-2-cyano-3-[3-methoxy-4-[2,4-di(trifluoromethyl)benzyloxy]phenyl]propenamide (XCT-790) (final concentration 10 μM) or 15 μM compound (final concentration 3 μM) was added, and the cells were cultured at 37° C. in the presence of 5% CO2 for 1 day. The luciferase activity was measured by using multiplate reader Envision (Perkin Elmer Inc.). The inverse agonist activity of the compound was calculated in percentage with the luciferase activity inhibited by no addition of compound as 0%, and with addition of final concentration 10 μM of XCT-790 as 100%.

[2] = target: T2, GST-ERR-α ligand-binding domain (Homo sapiens, UniProt P11474); assay: HTRF assay system using ERR-α ligand-binding domain (inverse agonist activity, biotinylated SRC-1 (676-700) peptide); type: biochemical; conditions: compound final concentration 30 μM, 665/620 ratio, no compound = 0%, 10 μM XCT-790 = 100%; for inhibition at 30 µM: read-out: inhibition rate (%) at 30 μM
T2 sequence (P11474 193-421 limits assumed): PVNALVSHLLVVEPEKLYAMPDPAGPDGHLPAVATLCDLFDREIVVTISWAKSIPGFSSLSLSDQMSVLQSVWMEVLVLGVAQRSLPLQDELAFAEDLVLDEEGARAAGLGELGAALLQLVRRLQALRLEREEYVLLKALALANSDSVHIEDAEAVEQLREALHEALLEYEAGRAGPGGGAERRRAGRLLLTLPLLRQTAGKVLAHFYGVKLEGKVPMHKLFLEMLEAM
Method: Experimental Example 1 Compound Evaluation in HTRF Assay System Using ERR-α Ligand-Binding Domain
An assay buffer (25 mM HEPES, 100 mM NaCl, 1 mM DTT, 0.1% BSA) containing 5 nM GST-ERR-α ligand-binding domain (final concentration 1.25 nM) was added to a 384 well plate, then 40 μM N-[5-(trifluoromethyl)-1,3,4-thiadiazol-2-yl]-2-cyano-3-[3-methoxy-4-[2,4-di(trifluoromethyl)benzyloxy]phenyl]propenamide (XCT-790) (final concentration 10 μM), or 120 μM compound (final concentration 30 μM) was added. Furthermore, an assay buffer containing XL665 conjugated Streptavidin, Eu^3+ criptate conjugated GST antibody and 200 nM biotinylated SRC-1 (676-700) (final concentration 100 nM) was added, and the mixture was reacted at room temperature for 2 hr. Using Multiplate reader Envision (Perkin Elmer Inc.), after excitation at 320 nm, fluorescence values at 620 nm and 665 nm were measured. The inverse agonist activity of the compound was calculated in percentage with the 665/620 ratio value inhibited by no addition of compound as 0%, and with addition of final concentration 10 μM of XCT-790 as 100%.

[3] = 50 mg/kg orally twice per day, dosing period 14 days

Compound	inhibition at 3 µM [1] [%]	inhibition at 30 µM [2] [%]	inhibition rate (%) at 3 μM ([1]; hydrochloride) [%]	inhibition rate (%) at 30 μM ([2]; hydrochloride) [%]	T/C (%) (MDA-MB-231-luc cells; 100 mg/kg orally twice per day, dosing period 15 days)	T/C (%) (MDA-MB-231-luc cells; 50 mg/kg orally twice per day, dosing period 15 days)	T/C (%) (MDA-MB-231-luc cells; [3])	T/C (%) (MDA-MB-231-luc cells; 50 mg/kg orally twice per day, dosing period 17 days)
CN(C)C(=O)CNC1=NC(=O)S/C1=C\C1CCN(Cc2ccc(C(F)(F)F)cc2C(F)(F)F)CC1 [Example 108, N^2-[(5Z)-5-({1-[2,4-bis(trifluoromethyl)benzyl]piperidin-4-yl}methylidene)-2-oxo-2,5-dihydro-1,3-thiazol-4-yl]-N,N-dimethylglycinamide]	81	89	–	–	–	–	45	–
CN(C)C(=O)[C@@H](CO)NC1=NC(=O)S/C1=C\C1CCN(Cc2ccc(C(F)(F)F)cc2C(F)(F)F)CC1 [Example 115, N^2-[(5Z)-5-({1-[2,4-bis(trifluoromethyl)benzyl]piperidin-4-yl}methylidene)-2-oxo-2,5-dihydro-1,3-thiazol-4-yl]-N,N-dimethyl-D-serinamide]	90	99	–	–	–	–	55	–

Second part, led by results:

inhibition at 3 µM [1] [%]	inhibition at 30 µM [2] [%]	inhibition rate (%) at 3 μM ([1]; hydrochloride) [%]	inhibition rate (%) at 30 μM ([2]; hydrochloride) [%]	Compound	T/C (%) (MDA-MB-231-luc cells; 100 mg/kg orally twice per day, dosing period 15 days)	T/C (%) (MDA-MB-231-luc cells; 50 mg/kg orally twice per day, dosing period 15 days)	T/C (%) (MDA-MB-231-luc cells; [3])	T/C (%) (MDA-MB-231-luc cells; 50 mg/kg orally twice per day, dosing period 17 days)
89	105	–	–	O=C1N=C(NCCOCCO)/C(=C/C2CCN(Cc3ccc(C(F)(F)F)cc3C(F)(F)F)CC2)S1 [Example 13, (5Z)-5-({1-[2,4-bis(trifluoromethyl)benzyl]piperidin-4-yl}methylidene)-4-{[2-(2-hydroxyethoxy)ethyl]amino}-1,3-thiazol-2(5H)-one ditoluenesulfonate]	20	–	–	–
97	106	–	–	CC(C)(O)CNC1=NC(=O)S/C1=C\C1CCN(Cc2ccc(C(F)(F)F)cc2C(F)(F)F)CC1 [Example 17, (5Z)-5-({1-[2,4-bis(trifluoromethyl)benzyl]piperidin-4-yl}methylidene)-4-[(2-hydroxy-2-methylpropyl)amino]-1,3-thiazol-2(5H)-one fumarate]	–	40	–	–
–	–	90	102	O=C1N=C(NCCOCCO)/C(=C/C2CCN(Cc3ccc(C(F)(F)F)cc3C(F)(F)F)CC2)S1 [Example 195, (5Z)-5-({1-[2,4-bis(trifluoromethyl)benzyl]piperidin-4-yl}methylidene)-4-{[2-(2-hydroxyethoxy)ethyl]amino}-1,3-thiazol-2(5H)-one hydrochloride]	–	–	–	56
